Structures can show the parent of a compound that is named as a salt. Where two headings read alike, the source gives them in different places.
Assays:
[1] = Hygroscopicity (DVS tests); format: physicochemical; details: for Hygroscopicity (%): water uptake at 25° C./80% RH
[2] = Solid-state stability under 40° C./75% RH for one week; format: physicochemical
ALK5 [3] = target: T1, ALK5 (Homo sapiens, UniProt P36897); assay: ALK5 nanobret assay in HEK293 cells transfected with ALK5-Nanoluc fusion; format: binding; details: luciferase tagged ALK5, fluorescent tracer competition (BRET), structure (I) tested as HCl salt
T1 sequence (P36897 34-503): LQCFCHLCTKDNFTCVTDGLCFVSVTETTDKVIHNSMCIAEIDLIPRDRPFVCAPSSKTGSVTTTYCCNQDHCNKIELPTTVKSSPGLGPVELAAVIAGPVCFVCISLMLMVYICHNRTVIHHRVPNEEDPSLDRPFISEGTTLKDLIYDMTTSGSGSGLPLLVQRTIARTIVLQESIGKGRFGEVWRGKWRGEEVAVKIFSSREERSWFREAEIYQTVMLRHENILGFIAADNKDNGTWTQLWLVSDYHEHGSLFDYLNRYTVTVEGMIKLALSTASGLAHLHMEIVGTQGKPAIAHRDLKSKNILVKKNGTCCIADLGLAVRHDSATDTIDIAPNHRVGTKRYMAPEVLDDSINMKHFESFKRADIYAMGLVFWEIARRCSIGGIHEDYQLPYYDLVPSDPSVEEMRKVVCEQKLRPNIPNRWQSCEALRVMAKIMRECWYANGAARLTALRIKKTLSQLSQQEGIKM
Method: An HCl salt of the compound of structure (I) was tested in an ALK5 nanobret assay. HEK293 cells were transfected with the ALK5-Nanoluc fusion (Promega) vector, which encodes for a luciferase tagged form of ALK5. For testing of the compound of structure (I), transfected cells were pretreated with drug. Subsequently, a fluorescent tracer was added and the fluorescence signal was measured.
In this assay, luminescence develops via the nanoluciferase tagged ALK5, which can transfer signal via bioluminescence energy transfer (BRET) to the tracer, yielding a fluorescent signal.

ALK5 [4] = target: T1, ALK5; assay: Rhabdomyosarcoma (RD) cell SMAD reporter (RDSR) assay; format: cell-based; design: The RD cell line was transfected with the pGL4.48(luc2P/SBE/Hygro) vector; endogenous in cells; host or cells: RD rhabdomyosarcoma cells stably transfected with the SBE-luciferase reporter only; details: RD cells transfected with pGL4.48(luc2P/SBE/Hygro) vector, pretreated with drug, induced with 50 pg/mL TGFβ1 for up to 24 hours; structure (I) tested as HCl salt
[5] = Kinetic solubility in pH 2, 5, and 7 buffers; format: physicochemical; details: for Kinetic Solubility: in pH 2, 5 and 7 buffers, compared with freebase Form A

Row | SMILES | form change after DVS tests [1] | Hygroscopicity (%) [1] | Solid-state Stability [2] | IC50 (ALK5 [3]) | IC50 (ALK5 [4]) | Hygroscopicity ([1]; class based on water uptake at 25° C./80% RH) | Kinetic Solubility [5] | Kinetic Solubility ([5]; listed as HCl Form A) | disproportionation ([5]; pH 7 buffer) | Solid-state Stability ([2]; listed as HCl salt Form A)
1 | COc1cc(Nc2nccc(Nc3cccnc3-c3ccccn3)n2)ccc1N1CCN(C)CC1 [Freebase Form A] | no form change | (0.60) % | Good physicochemical properties under |  |  |  |  |  |  | 
2 | COc1cc(Nc2nccc(Nc3cccnc3-c3ccccn3)n2)ccc1N1CCN(C)CC1 [compound of structure (I)] |  |  |  | 2300 nM | 309 nM |  |  |  |  | 
3 | COc1cc(Nc2nccc(Nc3cccnc3-c3ccccn3)n2)ccc1N1CCN(C)CC1 [HCl Salt Form A] | no form change | (0.86) % | Good physicochemical properties under |  |  | Slightly hygroscopic | increased solubility | HCl Form A showed increased solubility | disproportionation was observed | good physicochemical properties
